In publication PMC10384010, “Chromatographic Data in Statistical Analysis of BBB Permeability Indices” (Membranes, 2023):
Read-outs that look alike come from different tables or passages of the source.

Key:
[1] = cited from earlier work
[2] = Normal-phase TLC on silica gel 60 F254 (Rf); type: physicochemical; conditions: water:methanol:acetonitrile 60:20:20, ammonium acetate pH 7.4
[3] = HPLC on IAM (immobilized artificial membrane) column, retention factor; type: physicochemical; conditions: IAM.PC.DD.2 column; for k(IAM) retention factor: 10 mM phosphate buffer pH 7.4:acetonitrile 80:20; for logkIAM: logarithm of retention factor, phosphate buffer pH 7.4:acetonitrile 80:20
[4] = Reversed-phase TLC on RP-2 silanized plates (Rf); type: physicochemical; conditions: silica gel 60 RP-2 F254 silanized; water:methanol:acetonitrile 60:20:20, ammonium acetate pH 7.4
[5] = plasma protein binding, given as fraction, ref Drugbank

Compound: CCCC(=O)Nc1ccc(OCC(O)CNC(C)C)c(C(C)=O)c1 (centres unmarked) [acebutolol]
- PB (protein binding) [1, 5]: 0.26

Compound: O=C(O)COC(=O)Cc1ccccc1Nc1c(Cl)cccc1Cl [aceclofenac]
- NP (Rf from NP TLC plate) [2]: 0.89
- PB (protein binding) [1, 5]: 0.99
- k(IAM) retention factor [3]: 2.63
- logkIAM [3]: 0.42

Compound: CC(=O)Nc1nnc(S(N)(=O)=O)s1 [acetazolamid]
- PB (protein binding) [1, 5]: 0.98
- RP (Rf from RP-2 TLC plate) [4]: 0.97

Compound: Nc1nc2c(ncn2COCCO)c(=O)[nH]1 [aciclovir]
- PB (protein binding) [1, 5]: 0.21
- RP (Rf from RP-2 TLC plate) [4]: 0.99
- k(IAM) retention factor [3]: 0.09
- logkIAM [3]: -1.04

Compound: Oc1ncnc2[nH]ncc12 [allopurinnol]
- NP (Rf from NP TLC plate) [2]: 0.89
- RP (Rf from RP-2 TLC plate) [4]: 0.97

Compound: Cc1nnc2n1-c1ccc(Cl)cc1C(c1ccccc1)=NC2 [alprazolam]
- PB (protein binding) [1, 5]: 0.8
- k(IAM) retention factor [3]: 3.14
- logkIAM [3]: 0.50

Compound: CC1(C)S[C@@H]2[C@H](NC(=O)[C@H](N)c3ccc(O)cc3)C(=O)N2[C@H]1C(=O)O [amoxilcillin]
- NP (Rf from NP TLC plate) [2]: 0.68
- PB (protein binding) ([1]; plasma): 0.2
- RP (Rf from RP-2 TLC plate) [4]: 0.99
- k(IAM) retention factor [3]: 0.05
- logkIAM [3]: -1.32

Compound: CC(C)NCC(O)COc1ccc(CC(N)=O)cc1 (centres unmarked) [atenolol]
- NP (Rf from NP TLC plate) [2]: 0.34
- RP (Rf from RP-2 TLC plate) [4]: 0.58

Compound: CC(C)NCC(O)COc1ccc(CCOCC2CC2)cc1 (centres unmarked) [betaxolol]
- NP (Rf from NP TLC plate) [2]: 0.66
- PB (protein binding) [1, 5]: 0.5
- RP (Rf from RP-2 TLC plate) [4]: 0.27

Compound: CCOCCn1c(C2CCN(CCc3ccc(C(C)(C)C(=O)O)cc3)CC2)nc2ccccc21 [bilastine]
- NP (Rf from NP TLC plate) [2]: 0.46
- PB (protein binding) [1, 5]: 0.87
- RP (Rf from RP-2 TLC plate) [4]: 0.76
- k(IAM) retention factor [3]: 0.55
- logkIAM [3]: -0.26

Compound: OC(CCN1CCCCC1)(c1ccccc1)C1CC2C=CC1C2 (centres unmarked) [biperiden]
- NP (Rf from NP TLC plate) [2]: 0.68
- PB (protein binding) [1, 5]: 0.6
- RP (Rf from RP-2 TLC plate) [4]: 0.87
- k(IAM) retention factor [3]: 41.47
- logkIAM [3]: 1.62

Compound: CC(C)C[C@H]1C(=O)N2CCC[C@H]2[C@]2(O)O[C@](NC(=O)[C@@H]3C=C4c5cccc6[nH]c(Br)c(c56)C[C@H]4N(C)C3)(C(C)C)C(=O)N12 [bromocriptine]
- NP (Rf from NP TLC plate) [2]: 0.95
- PB (protein binding) [1, 5]: 0.93
- RP (Rf from RP-2 TLC plate) [4]: 0.69
- k(IAM) retention factor [3]: 12.69
- logkIAM [3]: 1.10

Compound: C=CCN1C[C@H](C(=O)N(CCCN(C)C)C(=O)NCC)C[C@@H]2c3cccc4[nH]cc(c34)C[C@H]21 [carbegoline]
- NP (Rf from NP TLC plate) [2]: 0.68
- PB (protein binding) ([1]; plasma): 0.41
- RP (Rf from RP-2 TLC plate) [4]: 0.68
- k(IAM) retention factor [3]: 17.05
- logkIAM [3]: 1.23

Compound: CCN(CC)C(=O)Nc1ccc(OCC(O)CNC(C)(C)C)c(C(C)=O)c1 (centres unmarked) [celiprolol]
- NP (Rf from NP TLC plate) [2]: 0.45
- PB (protein binding) [1, 5]: 0.275
- RP (Rf from RP-2 TLC plate) [4]: 0.75
- k(IAM) retention factor [3]: 5.87
- logkIAM [3]: 0.77

Compound: O=C(N[C@H](CO)[C@H](O)c1ccc([N+](=O)[O-])cc1)C(Cl)Cl [chloramphenikol]
- NP (Rf from NP TLC plate) [2]: 0.99
- RP (Rf from RP-2 TLC plate) [4]: 0.89
- k(IAM) retention factor [3]: 1.08
- logkIAM [3]: 0.03

Compound: CCN(CC)CCCC(C)Nc1ccnc2cc(Cl)ccc12 (centres unmarked) [chloroquine]
- PB (protein binding) [1, 5]: 0.55

Compound: O=C(O)c1cn(C2CC2)c2cc(N3CCNCC3)c(F)cc2c1=O [ciprofloxacin]
- NP (Rf from NP TLC plate) [2]: 0.11
- RP (Rf from RP-2 TLC plate) [4]: 0.38

Compound: CN(C)CCCC1(c2ccc(F)cc2)OCc2cc(C#N)ccc21 (centres unmarked) [citalopram]
- PB (protein binding) [1, 5]: 0.8

Compound: O=C(O)C1N=C(c2ccccc2)c2cc(Cl)ccc2NC1=O (centres unmarked) [clorazepate]
- NP (Rf from NP TLC plate) [2]: 0.94
- PB (protein binding) [1, 5]: 0.975
- RP (Rf from RP-2 TLC plate) [4]: 0.81
- k(IAM) retention factor [3]: 4.88
- logkIAM [3]: 0.69

Compound: CN(C)CCOC(c1ccccc1)c1ccccc1 [diphenhydramin]
- NP (Rf from NP TLC plate) [2]: 0.42
- PB (protein binding) ([1]; plasma): 0.985
- RP (Rf from RP-2 TLC plate) [4]: 0.58
- k(IAM) retention factor [3]: 3.66
- logkIAM [3]: 0.56

Compound: COc1cc2nc(N3CCN(C(=O)C4COc5ccccc5O4)CC3)nc(N)c2cc1OC (centres unmarked) [doxazosin]
- RP (Rf from RP-2 TLC plate) [4]: 0.75
- k(IAM) retention factor [3]: 0.22
- logkIAM [3]: -0.66

Compound: CN(C)CCC[C@@]1(c2ccc(F)cc2)OCc2cc(C#N)ccc21 [escitalopram]
- PB (protein binding) [1, 5]: 0.56
- k(IAM) retention factor [3]: 32.08
- logkIAM [3]: 1.51

Compound: C[C@]12CC[C@@H]3c4ccc(OC(=O)c5ccccc5)cc4CC[C@H]3[C@@H]1CC[C@@H]2O [estradiol benzoate]
- NP (Rf from NP TLC plate) [2]: 0.97
- PB (protein binding) [1, 5]: 0.95
- RP (Rf from RP-2 TLC plate) [4]: 0.63
- k(IAM) retention factor [3]: 6.92
- logkIAM [3]: 0.84

Compound: C[C@]12CC[C@@H]3c4ccc(O)cc4CC[C@H]3[C@@H]1CCC2=O [estrone]
- NP (Rf from NP TLC plate) [2]: 0.99
- PB (protein binding) [1, 5]: 0.95
- RP (Rf from RP-2 TLC plate) [4]: 0.79
- k(IAM) retention factor [3]: 29.40
- logkIAM [3]: 1.47

Compound: NC(N)=Nc1nc(CSCCC(N)=NS(N)(=O)=O)cs1 [famotidine]
- NP (Rf from NP TLC plate) [2]: 0.7
- RP (Rf from RP-2 TLC plate) [4]: 0.98

Compound: OC(Cn1cncn1)(Cn1cncn1)c1ccc(F)cc1F [fluconazole]
- NP (Rf from NP TLC plate) [2]: 0.87
- RP (Rf from RP-2 TLC plate) [4]: 0.9

Compound: CC(=O)OCC(=O)[C@@]1(O)CC[C@H]2[C@@H]3CCC4=CC(=O)CC[C@]4(C)[C@H]3[C@@H](O)C[C@@]21C [hydrocortisone acetate]
- NP (Rf from NP TLC plate) [2]: 0.96
- PB (protein binding) [1, 5]: 0.95
- k(IAM) retention factor [3]: 2.82
- logkIAM [3]: 0.45

Compound: C[C@H]1COc2c(N3CCN(C)CC3)c(F)cc3c(=O)c(C(=O)O)cn1c23 [levofloxacin]
- NP (Rf from NP TLC plate) [2]: 0.17
- PB (protein binding) [1, 5]: 0.31
- RP (Rf from RP-2 TLC plate) [4]: 0.27
- k(IAM) retention factor [3]: 0.90
- logkIAM [3]: -0.04

Compound: CN(C)C(=O)C(CCN1CCC(O)(c2ccc(Cl)cc2)CC1)(c1ccccc1)c1ccccc1 [loperamide]
- NP (Rf from NP TLC plate) [2]: 0.68
- RP (Rf from RP-2 TLC plate) [4]: 0.75

Compound: CN1CCN=C(c2ccccc2)c2cc(Cl)ccc21 [medazepam]
- NP (Rf from NP TLC plate) [2]: 0.91
- PB (protein binding) [1, 5]: 0.99
- RP (Rf from RP-2 TLC plate) [4]: 0.66
- k(IAM) retention factor [3]: 34.65
- logkIAM [3]: 1.54

Compound: COC(=O)c1ccc(O)cc1 [methyl paraben]
- NP (Rf from NP TLC plate) [2]: 0.97
- RP (Rf from RP-2 TLC plate) [4]: 0.85
- k(IAM) retention factor [3]: 1.94
- logkIAM [3]: 0.29

Compound: COc1ccc2cc([C@H](C)C(=O)O)ccc2c1 [naproxen]
- NP (Rf from NP TLC plate) [2]: 0.92
- RP (Rf from RP-2 TLC plate) [4]: 0.88

Compound: CC1COc2c(N3CCN(C)CC3)c(F)cc3c(=O)c(C(=O)O)cn1c23 (centres unmarked) [ofloxacin]
- NP (Rf from NP TLC plate) [2]: 0.24
- PB (protein binding) [1, 5]: 0.32

Compound: O=C1Nc2ccc(Cl)cc2C(c2ccccc2)=NC1O (centres unmarked) [oxazepam]
- NP (Rf from NP TLC plate) [2]: 0.93
- RP (Rf from RP-2 TLC plate) [4]: 0.83
- k(IAM) retention factor [3]: 4.78
- logkIAM [3]: 0.68

Compound: CCN(CC)CC#CCOC(=O)C(O)(c1ccccc1)C1CCCCC1 (centres unmarked) [oxybutinin]
- NP (Rf from NP TLC plate) [2]: 0.68
- RP (Rf from RP-2 TLC plate) [4]: 0.29
- k(IAM) retention factor [3]: 49.68
- logkIAM [3]: 1.70

Compound: CC(C)NCC(O)COc1cccc2[nH]ccc12 (centres unmarked) [pindolol]
- NP (Rf from NP TLC plate) [2]: 0.53
- PB (protein binding) [1, 5]: 0.4
- k(IAM) retention factor [3]: 6.09
- logkIAM [3]: 0.78

Compound: CCC1(c2ccccc2)C(=O)NCNC1=O [primidone]
- NP (Rf from NP TLC plate) [2]: 0.9
- RP (Rf from RP-2 TLC plate) [4]: 0.93

Compound: CCCNCC(O)COc1ccccc1C(=O)CCc1ccccc1 (centres unmarked) [propafenone]
- NP (Rf from NP TLC plate) [2]: 0.57
- RP (Rf from RP-2 TLC plate) [4]: 0.56

Compound: CCCc1cc(=O)[nH]c(=S)[nH]1 [propylthiouracil]
- PB (protein binding) [1, 5]: 0.82

Compound: CO[C@H]1/C=C/O[C@@]2(C)Oc3c(C)c(O)c4c(O)c(c(/C=N/N5CCN(C)CC5)c(O)c4c3C2=O)NC(=O)/C(C)=C\C=C\[C@H](C)[C@H](O)[C@@H](C)[C@@H](O)[C@@H](C)[C@H](OC(C)=O)[C@@H]1C [rifampicin]
- NP (Rf from NP TLC plate) [2]: 0.73
- PB (protein binding) [1, 5]: 0.89
- RP (Rf from RP-2 TLC plate) [4]: 0.95

Compound: CC(N)C12CC3CC(CC(C3)C1)C2 (centres unmarked) [rimantadine]
- NP (Rf from NP TLC plate) [2]: 0.92
- RP (Rf from RP-2 TLC plate) [4]: 0.95

Compound: CC(C)c1nc(N(C)S(C)(=O)=O)nc(-c2ccc(F)cc2)c1/C=C/[C@@H](O)C[C@@H](O)CC(=O)O [rosuvastatin]
- NP (Rf from NP TLC plate) [2]: 0.9
- RP (Rf from RP-2 TLC plate) [4]: 0.92
- k(IAM) retention factor [3]: 0.96
- logkIAM [3]: -0.02

Compound: CC[C@H]1OC(=O)[C@H](C)[C@@H](O[C@H]2C[C@@](C)(OC)[C@@H](O)[C@H](C)O2)[C@H](C)[C@@H](O[C@@H]2O[C@H](C)C[C@H](N(C)C)[C@H]2O)[C@](C)(O)C[C@@H](C)/C(=N\OCOCCOC)[C@H](C)[C@@H](O)[C@]1(C)O [roxitromicin]
- NP (Rf from NP TLC plate) [2]: 0.91
- PB (protein binding) ([1]; plasma): 0.96
- RP (Rf from RP-2 TLC plate) [4]: 0.8

Compound: CCC(C)(C)C(=O)O[C@H]1C[C@@H](C)C=C2C=C[C@H](C)[C@H](CC[C@@H]3C[C@@H](O)CC(=O)O3)[C@H]21 [simvastatin]
- NP (Rf from NP TLC plate) [2]: 0.19
- RP (Rf from RP-2 TLC plate) [4]: 0.66

Compound: CCS(=O)(=O)CCn1c([N+](=O)[O-])cnc1C [tinidazole]
- NP (Rf from NP TLC plate) [2]: 0.89
- PB (protein binding) [1, 5]: 0.12

Compound: COc1cccc(C2(O)CCCCC2CN(C)C)c1 (centres unmarked) [tramadol]
- PB (protein binding) [1, 5]: 0.2

Compound: CCCCC(=O)N(Cc1ccc(-c2ccccc2-c2nnn[nH]2)cc1)[C@H](C(=O)O)C(C)C [valsartan]
- PB (protein binding) [1, 5]: 0.955
- k(IAM) retention factor [3]: 0.08
- logkIAM [3]: -1.10

Compound: gentamycin
- NP (Rf from NP TLC plate) [2]: 0.96
- RP (Rf from RP-2 TLC plate) [4]: 0.911
